{"source": "paper PMC3901259", "about": "“Characterisation of the Metabolites of 1,8-Cineole Transferred into Human Milk: Concentrations and Ratio of Enantiomers” (Metabolites, 2013)", "experiment": "Quantification of 1,8-cineole metabolites in human milk (SAFE, GC-MS, internal standard and matrix calibration) after oral intake of 100 mg 1,8-cineole", "format": "in vivo", "settings": "for Absolute concentration in human milk: single determination", "excerpt": "Human milk samples were provided voluntarily by breastfeeding mothers after intake of the non-prescription pharmaceutical Soledum® (Klosterfrau Healthcare Group, Cologne, Germany). Before the beginning of the study, the participants were informed verbally, as well as in written form, about the study procedure and purpose and they were told that withdrawing from the study was possible at any time without giving any reason. All volunteers gave written consent to the analysis of their milk samples and anonymous publication of the resulting data. The Ethical Committee of the Medical Faculty, University Erlangen-Nuremberg, approved the experimental procedures. Each participant was handed a copy of the Soldeum® package instructions and was advised to read it before capsule intake. They were also advised to withdraw from the study if any negative reactions such as medication allergies or interactions with other drugs they were taking were to be expected. Additionally, the volunteers were informed verbally about potential effects of the pharmaceutical preparation on breastfeeding, i.e. the risk of an altered milk flavour and rejection of the milk by the nursling. Accordingly, if this would happen, the mothers were recommended to feed their babies with stored human milk or formula milk products.\nThe milk donors were between the ages of 29 and 40 years (mean 34 years). During their participation in the study, their breast milk production had to be normal and in excess of their infants' needs, with no breast infections and no overall medical complaints present. Five participants were primiparous, three were multiparous and the breast milk samples were from 19 weeks to 19 months postpartum. For sampling, either electrical or mechanical breast pumps or manual expression techniques were applied, resulting in sample volumes between 10 and 100 mL. The samples were immediately subjected to sample preparation after a maximum storage time of five hours at 7 °C or were stored in a freezer at −20 °C for up to five days.\nThe participating volunteers were asked to ingest one Soledum® capsule, containing 100 mg 1,8-cineole, and to wait until they themselves or another person began to notice the eucalyptus-like odour on their breath. […] The donors were instructed to keep notes on the dates of capsule intake, first eucalyptus-like odour on their breath and exact sampling time. Unfortunately it was difficult for some mothers to detect the smell on their breath so they expressed the samples after some time without having noticed the smell, or reported having been unsure about the smell. […] Some of the donors repeated the whole experiment and some expressed more than one sample after the capsule intake, resulting in 14 samples in total, from 8 different mothers.\nExtracts containing the volatile fraction of the human milk samples were prepared by Solvent Assisted Flavour Evaporation (SAFE) after addition of deuterated 1,8-cineole as internal standard (solution in dichloromethane), followed by 10 min of stirring, then another addition of dichloromethane (50% v/v), and 30 min of stirring. The resulting stable phase was distilled in the SAFE-apparatus at 50 °C and approximately 1x10^−4 mbar. The volatile fraction of the samples was frozen with liquid nitrogen. After thawing, it consisted of two phases, formed by the dichloromethane and by the water out of the milk. The water phase was extracted three times with dichloromethane, and the solvent phases were combined and dried over anhydrous Na2SO4. Finally the sample extracts were concentrated by microdistillation according to Bemelmans at 50 °C to a total volume of 50 to 200 μL.\nFor GC-MS analyses, an Agilent MSD quadrupole system (GC 7890A with MSD 5975C, Agilent Technologies, Waldbronn, Germany) coupled with a CIS 4C (cooled injection system) and an MPS 2 auto-sampler (Gerstel GmbH & Co. KG, Duisburg, Germany) were used. […]"}
{"smiles": "CC1(C)OC2(C)CCC1CC2O", "note": "(stereo not drawn) [a2-hydroxy-1,8-cineole, α2-hydroxy-1,8-cineole]", "values": [{"measurement": "Concentration range in human milk (abstract/conclusions)", "setting": "after oral 100 mg 1,8-cineole, rounded summary", "result": "100 to 250", "unit": "µg/kg"}, {"measurement": "Share of the metabolites on average", "setting": "human milk, roughly estimated", "result": "about 70%"}, {"measurement": "Estimated maximum level in human milk (concentration calculated with the last calibration point, in parentheses)", "setting": "sample A-1a (no odour)", "result": "< 1.37", "unit": "µg/kg"}, {"measurement": "Absolute concentration in human milk", "setting": "sample A-1a (no odour), oral 100 mg 1,8-cineole, values given with (<x) lie beyond calibration range, approximation", "result": 0.65, "unit": "µg/kg"}, {"measurement": "Absolute concentration in human milk", "setting": "sample A-1b (odour yes), oral 100 mg 1,8-cineole, values given with (<x) are approximations", "result": 138.10, "unit": "µg/kg"}, {"measurement": "Absolute concentration in human milk", "setting": "sample B-1 (odour yes), oral 100 mg 1,8-cineole, values given with (<x) are approximations", "result": 176.30, "unit": "µg/kg"}, {"measurement": "Absolute concentration in human milk", "setting": "sample B-2a (no odour), oral 100 mg 1,8-cineole", "result": 0.61, "unit": "µg/kg"}, {"measurement": "Absolute concentration in human milk", "setting": "sample B-2b (odour yes), oral 100 mg 1,8-cineole, values given with (<x) are approximations", "result": 113.55, "unit": "µg/kg"}, {"measurement": "Absolute concentration in human milk", "setting": "sample B-2c (no odour), oral 100 mg 1,8-cineole", "result": 29.25, "unit": "µg/kg"}, {"measurement": "Absolute concentration in human milk", "setting": "sample C (no odour; very weak odour not caused by 1,8-cineole), oral 100 mg 1,8-cineole, values given with (<x) are approximations", "result": 7.68, "unit": "µg/kg"}, {"measurement": "Absolute concentration in human milk", "setting": "sample D-1 (no odour), oral 100 mg 1,8-cineole, values given with (<x) are approximations", "result": 15.08, "unit": "µg/kg"}, {"measurement": "Absolute concentration in human milk", "setting": "sample D-2 (odour yes), oral 100 mg 1,8-cineole, values given with (<x) are approximations", "result": 135.98, "unit": "µg/kg"}, {"measurement": "Absolute concentration in human milk", "setting": "sample E-1 (no odour), oral 100 mg 1,8-cineole, values given with (<x) are approximations", "result": 2.02, "unit": "µg/kg"}, {"measurement": "Absolute concentration in human milk", "setting": "sample E-2 (odour yes), oral 100 mg 1,8-cineole, values given with (<x) are approximations", "result": 233.31, "unit": "µg/kg"}, {"measurement": "Absolute concentration in human milk", "setting": "sample F (no odour), parent ingested two capsules, values given with (<x) are approximations", "result": 3.16, "unit": "µg/kg"}, {"measurement": "Absolute concentration in human milk", "setting": "sample G (odour yes), oral 100 mg 1,8-cineole, values given with (<x) are approximations", "result": 98.83, "unit": "µg/kg"}, {"measurement": "Absolute concentration in human milk", "setting": "sample H (odour yes), oral 100 mg 1,8-cineole, values given with (<x) are approximations", "result": 206.09, "unit": "µg/kg"}, {"measurement": "Concentration range in human milk samples", "setting": "seven positive samples (eucalyptus-like odour), Figure 2", "result": "99 to 233", "unit": "µg/kg"}]}
